Measurements from patent publication US12077503B2, “Substituted cyclic amides and their use as herbicides” (FMC CORPORATION, priority 2015, dated 2024).

Columns and labels:
Type in all cases: in vivo
[1] = test system: barnyardgrass (Echinochloa crus-galli); test: Test G Pre-Emergence Protocol; details: Echinochloa crus-galli, pre-emergence, 312 h, evaluated after 13 days; for pest or weed control at 15.625 g/ha: 15.625 g ai/ha, read-out: Barnyard grass damage rating (100=total damage to plant; 0=no damage to plant); for pest or weed control at 62.5 g/ha: 62.5 g ai/ha, 100=total damage to plant, 0=no damage to plant, read-out: plant damage rating, Barnyardgrass; for pest or weed control at 250 g/ha: 250 g ai/ha, read-out: Barnyardgrass damage rating (100=total damage to plant; 0=no damage to plant)
Procedure, shortened: (§1)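 Under a 24/16° C day/night regime with 14 h light and 65% humidity, sown pots were sprayed after one day with compound (15.625, 62.5 or 250 g/ha; 50:50 acetone/water, 0.5% Tween 20). Damage was assessed visually 13 days later, 0 to 100.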

[2] = test system: corn (Zea mays); test: Test G Pre-Emergence Protocol; details: Zea mays, pre-emergence, 312 h, evaluated after 13 days; for plant injury at 15.625 g/ha: 15.625 g ai/ha; for plant injury at 15.625 g/ha / plant injury at 250 g/ha: read-out: Corn damage rating (100=total damage to plant; 0=no damage to plant); for plant injury at 62.5 g/ha: 62.5 g ai/ha, 100=total damage to plant, 0=no damage to plant, read-out: plant damage rating, Corn; for plant injury at 250 g/ha: 250 g ai/ha
Procedure, shortened: as §1

[3] = test system: giant foxtail (Setaria faberi); test: Test G Pre-Emergence Protocol; details: Setaria faberi, pre-emergence, 312 h, evaluated after 13 days; for pest or weed control at 15.625 g/ha: 15.625 g ai/ha; for pest or weed control at 15.625 g/ha / pest or weed control at 250 g/ha: read-out: Foxtail, Giant damage rating (100=total damage to plant; 0=no damage to plant); for pest or weed control at 62.5 g/ha: 62.5 g ai/ha, 100=total damage to plant, 0=no damage to plant, read-out: plant damage rating, Foxtail, Giant; for pest or weed control at 250 g/ha: 250 g ai/ha
Procedure, shortened: as §1

[4] = test system: ivy-leaved morning glory (Ipomoea hederacea); test: Test G Pre-Emergence Protocol; details: Ipomoea, pre-emergence, 312 h, evaluated after 13 days; for pest or weed control at 15.625 g/ha: 15.625 g ai/ha, read-out: Morning-glory, Ivy-leaved damage rating (100=total damage to plant; 0=no damage to plant); for pest or weed control at 62.5 g/ha: 62.5 g ai/ha, 100=total damage to plant, 0=no damage to plant, read-out: plant damage rating, Morningglory, Ivy-leaved; for pest or weed control at 250 g/ha: 250 g ai/ha, read-out: Morningglory, Ivy-leaved damage rating (100=total damage to plant; 0=no damage to plant)
Procedure, shortened: as §1

[5] = test system: redroot pigweed (Amaranthus retroflexus); test: Test G Pre-Emergence Protocol; details: Amaranthus retroflexus, pre-emergence, 312 h, evaluated after 13 days; for pest or weed control at 15.625 g/ha: 15.625 g ai/ha; for pest or weed control at 15.625 g/ha / pest or weed control at 250 g/ha: read-out: Pigweed, Redroot damage rating (100=total damage to plant; 0=no damage to plant); for pest or weed control at 62.5 g/ha: 62.5 g ai/ha, 100=total damage to plant, 0=no damage to plant, read-out: plant damage rating, Pigweed, Redroot; for pest or weed control at 250 g/ha: 250 g ai/ha
Procedure, shortened: as §1

[6] = test system: velvetleaf (Abutilon theophrasti); test: Test G Pre-Emergence Protocol; details: Abutilon theophrasti, pre-emergence, 312 h, evaluated after 13 days; for pest or weed control at 15.625 g/ha: 15.625 g ai/ha; for pest or weed control at 15.625 g/ha / pest or weed control at 250 g/ha: read-out: Velvetleaf damage rating (100=total damage to plant; 0=no damage to plant); for pest or weed control at 62.5 g/ha: 62.5 g ai/ha, 100=total damage to plant, 0=no damage to plant, read-out: plant damage rating, Velvetleaf; for pest or weed control at 250 g/ha: 250 g ai/ha
Procedure, shortened: as §1

[7] = test system: barnyardgrass (Echinochloa crus-galli); test: Test G Post-Emergence Protocol; details: Echinochloa crus-galli, post-emergence, 312 h; for pest or weed control at 15.625 g/ha: 15.625 g ai/ha, evaluated after 13 days (100=total damage to plant; 0=no damage to plant), read-out: Barnyardgrass damage rating; for pest or weed control at 62.5 g/ha: 62.5 g ai/ha, read-out: Barnyardgrass damage rating (100=total damage to plant; 0=no damage to plant); for pest or weed control at 62.5 g/ha / pest or weed control at 250 g/ha: evaluated after 13 days; for pest or weed control at 250 g/ha: 250 g ai/ha, read-out: damage to plant, Barnyardgrass (100=total damage to plant; 0=no damage to plant)
Procedure, shortened: (§2)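 Eight days post-sowing, plants received a spray of test compound (acetone/water 50:50, 0.5% Tween 20) at 15.625, 62.5 or 250 g/ha. Glasshouse regime thereafter: 24/16 °C, 14 h light, 65% humidity. Assessment after 13 days on a 0–100 damage scale.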

[8] = test system: corn (Zea mays); test: Test G Post-Emergence Protocol; details: Zea mays, post-emergence, 312 h; for plant injury at 15.625 g/ha: 15.625 g ai/ha, evaluated after 13 days (100=total damage to plant; 0=no damage to plant), read-out: Corn damage rating; for plant injury at 62.5 g/ha: 62.5 g ai/ha, read-out: Corn damage rating (100=total damage to plant; 0=no damage to plant); for plant injury at 62.5 g/ha / plant injury at 250 g/ha: evaluated after 13 days; for plant injury at 250 g/ha: 250 g ai/ha, read-out: damage to plant, Corn (100=total damage to plant; 0=no damage to plant)
Procedure, shortened: as §2

[9] = test system: giant foxtail (Setaria faberi); test: Test G Post-Emergence Protocol; details: Setaria faberi, post-emergence, 312 h; for pest or weed control at 15.625 g/ha: 15.625 g ai/ha, evaluated after 13 days (100=total damage to plant; 0=no damage to plant), read-out: Foxtail, Giant damage rating; for pest or weed control at 62.5 g/ha: 62.5 g ai/ha, read-out: Foxtail, Giant damage rating (100=total damage to plant; 0=no damage to plant); for pest or weed control at 62.5 g/ha / pest or weed control at 250 g/ha: evaluated after 13 days; for pest or weed control at 250 g/ha: 250 g ai/ha, read-out: damage to plant, Foxtail, Giant (100=total damage to plant; 0=no damage to plant)
Procedure, shortened: as §2

[10] = test system: ivy-leaved morning glory (Ipomoea hederacea); test: Test G Post-Emergence Protocol; details: Ipomoea, post-emergence, 312 h; for pest or weed control at 15.625 g/ha: 15.625 g ai/ha, evaluated after 13 days (100=total damage to plant; 0=no damage to plant), read-out: Morningglory, Ivy-leaved damage rating; for pest or weed control at 62.5 g/ha: 62.5 g ai/ha, read-out: Morningglory, Ivy-leaved damage rating (100=total damage to plant; 0=no damage to plant); for pest or weed control at 62.5 g/ha / pest or weed control at 250 g/ha: evaluated after 13 days; for pest or weed control at 250 g/ha: 250 g ai/ha, read-out: damage to plant, Morningglory, Ivy-leaved (100=total damage to plant; 0=no damage to plant)
Procedure, shortened: as §2

[11] = test system: redroot pigweed (Amaranthus retroflexus); test: Test G Post-Emergence Protocol; details: Amaranthus retroflexus, post-emergence, 312 h; for pest or weed control at 15.625 g/ha: 15.625 g ai/ha, evaluated after 13 days (100=total damage to plant; 0=no damage to plant), read-out: Pigweed, Redroot damage rating; for pest or weed control at 62.5 g/ha: 62.5 g ai/ha, read-out: Pigweed, Redroot damage rating (100=total damage to plant; 0=no damage to plant); for pest or weed control at 62.5 g/ha / pest or weed control at 250 g/ha: evaluated after 13 days; for pest or weed control at 250 g/ha: 250 g ai/ha, read-out: damage to plant, Pigweed, Redroot (100=total damage to plant; 0=no damage to plant)
Procedure, shortened: as §2

[12] = test system: velvetleaf (Abutilon theophrasti); test: Test G Post-Emergence Protocol; details: Abutilon theophrasti, post-emergence, 312 h; for pest or weed control at 15.625 g/ha: 15.625 g ai/ha, evaluated after 13 days (100=total damage to plant; 0=no damage to plant), read-out: Velvetleaf damage rating; for pest or weed control at 62.5 g/ha: 62.5 g ai/ha, read-out: Velvetleaf damage rating (100=total damage to plant; 0=no damage to plant); for pest or weed control at 62.5 g/ha / pest or weed control at 250 g/ha: evaluated after 13 days; for pest or weed control at 250 g/ha: 250 g ai/ha, read-out: damage to plant, Velvetleaf (100=total damage to plant; 0=no damage to plant)
Procedure, shortened: as §2

CN1C[C@@H](c2ccc(C(F)(F)F)cc2)[C@H](C(=O)Nc2nnc(C(F)(F)F)s2)C1=O (racemic) [Compound 1548]
0%: pest or weed control at 15.625 g/ha [1] | pest or weed control at 62.5 g/ha [1] | pest or weed control at 250 g/ha [1] | plant injury at 15.625 g/ha [2] | plant injury at 62.5 g/ha [2] | plant injury at 250 g/ha [2] | pest or weed control at 15.625 g/ha [3] | pest or weed control at 62.5 g/ha [3] | pest or weed control at 250 g/ha [3] | pest or weed control at 15.625 g/ha [4] | pest or weed control at 62.5 g/ha [4] | pest or weed control at 250 g/ha [4] | pest or weed control at 15.625 g/ha [5] | pest or weed control at 62.5 g/ha [5] | pest or weed control at 250 g/ha [5] | pest or weed control at 15.625 g/ha [6] | pest or weed control at 62.5 g/ha [6] | pest or weed control at 250 g/ha [6] | pest or weed control at 15.625 g/ha [7] | pest or weed control at 62.5 g/ha [7] | pest or weed control at 250 g/ha [7] | plant injury at 15.625 g/ha [8] | plant injury at 62.5 g/ha [8] | plant injury at 250 g/ha [8] | pest or weed control at 15.625 g/ha [9] | pest or weed control at 62.5 g/ha [9] | pest or weed control at 250 g/ha [9] | pest or weed control at 15.625 g/ha [10] | pest or weed control at 62.5 g/ha [10] | pest or weed control at 250 g/ha [10] | pest or weed control at 15.625 g/ha [11] | pest or weed control at 62.5 g/ha [11] | pest or weed control at 250 g/ha [11] | pest or weed control at 15.625 g/ha [12] | pest or weed control at 62.5 g/ha [12] | pest or weed control at 250 g/ha [12]

Cc1nnc(NC(=O)[C@@H]2C(=O)N(C)C[C@H]2c2ccc(C(F)(F)F)cc2)nc1C (racemic) [Compound 1549]
0%: pest or weed control at 15.625 g/ha [1] | pest or weed control at 62.5 g/ha [1] | pest or weed control at 250 g/ha [1] | plant injury at 15.625 g/ha [2] | plant injury at 62.5 g/ha [2] | plant injury at 250 g/ha [2] | pest or weed control at 15.625 g/ha [3] | pest or weed control at 62.5 g/ha [3] | pest or weed control at 250 g/ha [3] | pest or weed control at 15.625 g/ha [4] | pest or weed control at 62.5 g/ha [4] | pest or weed control at 250 g/ha [4] | pest or weed control at 15.625 g/ha [5] | pest or weed control at 62.5 g/ha [5] | pest or weed control at 250 g/ha [5] | pest or weed control at 15.625 g/ha [6] | pest or weed control at 62.5 g/ha [6] | pest or weed control at 250 g/ha [6] | pest or weed control at 15.625 g/ha [7] | pest or weed control at 62.5 g/ha [7] | pest or weed control at 250 g/ha [7] | plant injury at 15.625 g/ha [8] | plant injury at 62.5 g/ha [8] | plant injury at 250 g/ha [8] | pest or weed control at 15.625 g/ha [9] | pest or weed control at 62.5 g/ha [9] | pest or weed control at 250 g/ha [9] | pest or weed control at 15.625 g/ha [10] | pest or weed control at 62.5 g/ha [10] | pest or weed control at 250 g/ha [10] | pest or weed control at 15.625 g/ha [11] | pest or weed control at 62.5 g/ha [11] | pest or weed control at 250 g/ha [11] | pest or weed control at 15.625 g/ha [12] | pest or weed control at 62.5 g/ha [12] | pest or weed control at 250 g/ha [12]
